In assay [1] the test system is controlled cortical impact model of brain injury (TBI). Briefly: Morris Water Maze test of cognitive function after controlled cortical impact TBI. The format is in vivo, rat.
Description: Male Sprague-Dawley rats (Harlan Sprague-Dawley, Indianapolis, Ind.), weighing 350-450 grams each were given free access to food and water before the experiment. The animals were anesthetized with halothane (1% in 70%/30% NO2/O2 by mask).
Animals were anesthetized with isoflorane and placed in a stereotaxic frame in the supine position. A 6 mm craniotomy located approximately midway between bregma and lambda, just above the somatosensory cortex, was made using a Michele trephine. The skull disk was then removed without disturbing the underlying dura mater. The exposed brain was injured using an electronically controlled piston (5 mm diameter, 65 kdynes). The animals in the “sham” group underwent identical surgical procedures, but the surface of the brain was not impacted.
Following surgery, animals were placed in their home cage and dosing was initiated. Animals were treated with saline (Group 1: sham, Group 2: injured), PEG (Group 3: injured), magnesium (Group 4: injured) or a combination of PEG and magnesium solutions (Group 5: injured). The PEG solution was composed of PEG3350 at 30% in 0.5% saline (custom made by AAIPharma Developmental Services, Wilmington, N.C.). […] The magnesium solution was diluted in saline 1:1 before intravenous injection as recommended by the manufacturer. In the cases of combined PEG+Mg combined treatments, animal received the PEG and magnesium components from two individual solutions.
In more details, each animal received 2 injections: • Group 1: Sham—1.23 ml/kg of saline solution followed by 1.23 ml/kg of saline solution; • Group 2: Injured—1.23 ml/kg of saline solution followed by 1.23 ml/kg of saline solution; • Group 3: Injured—2.33 ml/kg of PEG solution followed by 0.12 ml/kg of saline solution; • Group 4: Injured—0.12 ml/kg of magnesium solution followed by 2.33 ml/kg of saline solution; • Group 5: Injured—2.33 ml/kg of PEG solution followed by 0.12 ml/kg of magnesium solution. […]
The effects of PEG, magnesium sulfate and combined treatment on recovery of cognitive function following TBI were evaluated using the Morris Water Maze Test. […]
Assay [2] relates to spinal cord contusion at T10 (SCI). Briefly: Locomotor recovery, modified 12-point BBB scale, after spinal cord contusion (dural impact model). The format is in vivo, rat. The note with it: Example 4; iv, 15 min and 6 h post-injury; total 2 g/kg PEG, 0.12 g/kg magnesium sulfate. The procedure:
Sprague-Dawley female rats (200-225 gm) received a spinal cord contusion using the Precision Scientific Inc pneumatic impactor. Prior to surgery, rats were assigned to different treatment groups based on a randomized block design so that on any given surgery day all treatments would be included. The rats were anesthetized with ketamine (80 mg/kg) and xylazine (10 mg/kg) before a laminectomy will be performed at the 10th thoracic vertebra (T10). The vertebral column was stabilized with angled clamps on the upper thoracic (T8) and lumbar (T11) levels and the impactor with a tip diameter of 2 mm was delivered at approximately 50 kd onto the exposed, intact dura overlying the dorsal spinal cord. The impactor was immediately removed, the wound irrigated with saline, and the muscle and skin openings sutured together. Female animals were used due to the paralysis associated with the injury and ease of voiding the bladder.
Following surgery, animals were placed in their home cage and dosing was initiated. Animals were treated with saline (Group 1: sham, Group 2: injured), PEG (Group 3: injured), magnesium (Group 4: injured) or a combination of PEG and magnesium solutions (Group 5: injured). […]
(§1) To evaluate the significance of difference between experimental groups, data were analyzed using an unpaired, two-tailed t statistical test with confidence intervals of 95%. […]

For assay [3] the test system is unchanged. In words: Spinal cord lesion volume after SCI contusion (eriochrome cyanine sections). In kind it is in vivo, rat. Conditions: Example 4, sacrificed on day 14, total 2 g/kg PEG, 0.12 g/kg magnesium sulfate.
Protocol: Following surgery, animals were placed in their home cage and dosing was initiated. […]
At the end of the study, the spinal cords were extracted and fixed in 4% paraformaldehyde. […] Tissue sparing was determined by computed image analysis be from 10 evenly spaced sections through the injured T10 segment. […]
The subject of assay [4] is clip-compression injury at T4 (SCI). In words: Locomotor recovery, 21-point BBB open field test, after clip-compression SCI. In kind it is in vivo, rat. Conditions: Example 5; day 7 post-SCI; total 0.6 g/kg magnesium sulfate iv. As to the method: Wistar female rats weighing 200-250 grams received a controlled clip-compression injury at T4. This experimental model has been previously described in details in Gris et al., 2004. Briefly, animals were premedicated with diazepam (3.5 mg/kg, i.p.) and atropine (0.05 mg/kg, s.c.) in order to facilitate a smooth induction of anesthesia by 4% halothane and maintenance with 1.0-1.5% halothane. The T4 spinal cord segment was exposed by dorsal laminectomy and a modified aneurysm clip, calibrated to 50 grams compression was passed extradurally around the cord and spring released for 60 seconds. Nerve roots were not disrupted during the clip compression.
Following SCI, animals were placed in their home cage and dosing was initiated. […]
Locomotor recovery was assessed by the 21-point Basso, Beatie and Bresnahan (BBB) open field locomotor test (Basso et al., 1995), from day 3-21 after injury. Locomotor function was evaluated by 2 blinded investigators at each testing period.
as §1
Following SCI, rats were treated with saline, PEG, Mg or a combined solution of PEG and Mg. Locomotor recovery was assessed by the 21-point BBB score system from day 3-25 post-injury.

Assay [5] has as its system neuropathic pain after SCI. Briefly: Mechanical allodynia (neuropathic pain score, Semmes-Weinstein monofilament) after SCI. In kind it is in vivo, rat. Conditions: Example 6; up to 3 weeks post-injury. As to the method:
Animals were prepared as described in Example 3.
Animals were tested for the development of neuropathic pain before and up to 3 weeks post-injury. Neuropathic pain occurrence and severity was evaluated by the response of the animal to a stimulus that is normally not painful or allodynia. Briefly, a modified Semmes-Weinstein monofilament (Stoelting Co, Wood Dale, Ill.) calibrated to generate a force of 15 mN was applied to the dorsal trunk at dermatomes corresponding to spinal segments immediately rostral to the lesion level (T1-T3). The monofilament was applied 10 times for 3 seconds, with each stimulus being separated by a 5 second interval, and the number of avoidance responses out of a possible 10 were recorded. Avoidance responses were defined as flinching, escape, vocalization, or abnormal aggressive behaviors. The scoring system used to monitor mechanical allodynia has been presented in details in Gris et al., 2004. Mechanical allodynia testing was conducted twice per week and the 2 tests were averaged for each animal and reported as a weekly pain score.
To evaluate the significance of difference between experimental groups, data were analyzed using an unpaired, two-tailed t statistical test with confidence intervals of 95%. The Welch's modification was also used to analyze the motor recovery to take in account the significant variability in the control group. […]

In a further assay the test system is stroke. The note with it: intravenous, up to 12 hours following stroke onset; 2589 patients; cited from earlier work.
Another assay has as its system TBI. The note with it: trial initiated in 1999; cited from earlier work.
In assay [6] the test system is carrageenan-induced hind paw acute inflammation. Briefly: Carrageenan hind paw acute inflammation, mechanical allodynia (up-down method). The note with it: Example 7, 24 hours after carrageenan. In kind it is in vivo, rat. The procedure: Animals were treated with saline (0.5% final), indomethacin, PEG, magnesium or combined PEG+magnesium solutions. Each animal received 2 injections, the first one 1 hour following carrageenan injection and the second injection 6 hours later. The total dose of PEG and magnesium chloride administered was of 2 and 0.135 g/kg (body weight) respectively. There were 10 animals per group.
Indomethacin (Fluka, cat. 57413, lot 450544/1) was dissolved in 25% hydroxyl-propyl beta cyclodextrin (hpBCD) by gentle heating and stirring. The PEG solution was composed of PEG3350 at 30% in 0.5% saline, the magnesium solution was composed of magnesium chloride at 2% and the combined PEG+magnesium solution was composed of 30% PEG3350+2% Magnesium Chloride (custom made by AAIPharma Developmental Services, Wilmington, N.C.). […]
Twenty-four hours following carrageenan injection into the left paw, the same paw was tested for mechanical allodynia. Baseline and post-treatment values for non-noxious mechanical sensitivity were evaluated using 8 Semmes-Weinstein filaments (Stoelting, Wood Dale, Ill., USA) with varying stiffness (0.4, 0.7, 1.2, 2.0, 3.6, 5.5, 8.5, and 15 g) according to the up-down method (Chaplan et al., 1994). […]
To evaluate the significance of difference between experimental groups, data were analyzed using an unpaired, two-tailed t statistical test with confidence intervals of 95%.

The next assay deals with pain. Conditions: human, in vivo; cited from earlier work.

With `O=S(=O)([O-])[O-].[Mg+2]` [Mg, magnesium sulfate], the “effect on cognitive functions following TBI” value in assay [1] (Example 1, iv, 15 min and 6 h post-injury, total 1.4 g/kg PEG or 0.230 mmol/kg magnesium sulfate) was “no effect”. In assay [2], the “effect on motor functions following SCI (12-point BBB score) relative to SCI-Saline group” value is given as “no effect”. Further, the “reduction of the lesion volume relative to control group (SCI-Saline)” value in [3] worked out at 33%. Also, the “effect on motor recovery (21-point BBB)” value in assay [4] is recorded as “Some improvement”. Moreover, the “effect on the development of neuropathic pain after SCI” value in [5] is recorded as “no significant effect”. For the same compound, the “clinical improvement after stroke” value in the assay on stroke is reported as “no significant improvement”. The “preliminary data of clinical trial in TBI patients” value with TBI is “negative”.

Consider `[Cl-].[Cl-].[Mg+2]` [magnesium chloride], for which the “effect on cognitive recovery after TBI” value in assay [1] (Example 2, total 1.4 g/kg PEG or 0.230 mmol/kg magnesium chloride) was “no significant effect”.

With `COc1ccc2c(c1)c(CC(=O)O)c(C)n2C(=O)c1ccc(Cl)cc1` [Indomethacin], the “mean pain score (mechanical allodynia)” value in assay [6] (carrageenan-saline 3.4+/−0.5, sham 12.7+/−1.1, higher is better) is given as 5.6+/−0.9.

On to `[Cl-].[Cl-].[Mg+2]` [Magnesium, magnesium chloride], for which, in assay [1] (summary statement in the description), the “effect on the loss of cognitive functions following brain injury” value was “no effect”. For the same compound, the “effect on the pain score relative to animals treated with saline” value in assay [6] (total 2 g/kg PEG or 0.135 g/kg magnesium chloride) is recorded as “no significant effect”. Also, the “duration of analgesic effect” value with pain is at most 4 h.

These data come from patent US9717756B2, “Method of treating traumatic brain or spinal cord injury with biomembrane sealing agent and magnesium compounds” (Warsaw Orthopedic, Inc., priority 2006, dated 2017).
